According to the supplement of paper PMC11061612:

Key:
Test in all cases: Bliss excess, mean over the matrix (fraction); higher = more synergy
[1] = tested on: HT-3 (Cervical Carcinoma)
How it was run: (§1)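 After 24 hours at 37°C and 5% CO2 in 1536-well plates, cells in DMEM/F12 or RPMI plus 10% FBS received two-drug dose matrices for 72 hours. Viability came from CellTiter-Glo 2.0 luminescence and was scaled as inhibition, anchored at 0 by vehicle wells and at 1 by blank wells. Combination Emax is taken as the second-highest inhibition in the matrix, and Bliss excess as the observed combination effect less EA + EB − EA·EB, with EA and EB the single-agent effects.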

[2] = tested on: NCI-H1944 (Lung Adenocarcinoma)
How it was run: as §1

[3] = tested on: C2BBe1 (Colorectal Carcinoma)
How it was run: as §1

[4] = tested on: SBC-3 (Small Cell Lung Carcinoma)
How it was run: as §1

[5] = tested on: SBC-5 (Small Cell Lung Carcinoma)
How it was run: as §1

[6] = tested on: NCI-H2009 (Lung Adenocarcinoma)
How it was run: as §1

SK-N-DZ (Neuroblastoma) = tested on: SK-N-DZ (Neuroblastoma)
How it was run: as §1

[7] = tested on: ATN-1 (T-Lymphoblastic Leukemia)
How it was run: as §1

[8] = tested on: MRK-nu-1 (Breast Carcinoma)
How it was run: as §1

[9] = tested on: Daudi (Burkitt's Lymphoma)
How it was run: as §1

[10] = tested on: NCI-H1975 (Lung Adenocarcinoma)
How it was run: as §1

[11] = tested on: BC-1 (B-Cell Non-Hodgkin's Lymphoma)
How it was run: as §1

[12] = tested on: L-363 (Plasma Cell Myeloma)
How it was run: as §1

[13] = tested on: NCI-H1648 (Lung Adenocarcinoma)
How it was run: as §1

[14] = tested on: RPMI-8402 (T-Lymphoblastic Leukemia)
How it was run: as §1

NCI-H2452 (Mesothelioma) = tested on: NCI-H2452 (Mesothelioma)
How it was run: as §1

[15] = tested on: JJN-3 (Plasma Cell Myeloma)
How it was run: as §1

[16] = tested on: COR-L105 (Lung Adenocarcinoma)
How it was run: as §1

[17] = tested on: GRANTA-519 (B-Cell Non-Hodgkin's Lymphoma)
How it was run: as §1

[18] = tested on: SUP-HD1 (Hodgkin's Lymphoma)
How it was run: as §1

| SMILES | Bliss excess [1] | Bliss excess [2] | Bliss excess [3] | Bliss excess [4] | Bliss excess [5] | Bliss excess [6] | Bliss excess (SK-N-DZ (Neuroblastoma)) | Bliss excess [7] | Bliss excess [8] | Bliss excess [9] | Bliss excess [10] | Bliss excess [11] | Bliss excess [12] | Bliss excess [13] | Bliss excess [14] | Bliss excess (NCI-H2452 (Mesothelioma)) | Bliss excess [15] | Bliss excess [16] | Bliss excess [17] | Bliss excess [18] |
| --- | --- | --- | --- | --- | --- | --- | --- | --- | --- | --- | --- | --- | --- | --- | --- | --- | --- | --- | --- | --- |
| CCN(CCO)CCCOc1ccc2c(Nc3cc(CC(=O)Nc4cccc(F)c4)[nH]n3)ncnc2c1 [AZD2811] + C[C@@H]1COCCN1C2=NC(=NC(=C2)C3(CC3)[S@](=N)(=O)C)C4=C5C=CNC5=NC=C4 [AZD6738] (first compound max 1 µM, 7x7, partner max 10 µM) | -0.0538 | -0.0415 | -0.0362 | -0.0369 | -0.0236 | -0.0359 | -0.0507 | -0.0839 | -0.077 | 0.0457 | 0.0002 | -0.1 | -0.0485 | -0.0898 | -0.0312 | -0.0756 | 0.0338 | -0.0679 | -0.0269 | 0.0391 |
| CC1(C)CCC(CN2CCN(c3ccc(C(=O)NS(=O)(=O)c4ccc(NCC5CCOCC5)c([N+](=O)[O-])c4)c(Oc4cnc5[nH]ccc5c4)c3)CC2)=C(c2ccc(Cl)cc2)C1 [Venetoclax] + C1CN(CCC1(C(=O)N[C@@H](CCO)C2=CC=C(C=C2)Cl)N)C3=NC=NC4=C3C=CN4 [Capivasertib] (first compound max 1 µM, 7x7, partner max 3 µM) | -0.0231 | -0.0343 | -0.0585 | -0.0457 | -0.041 | -0.0299 | -0.0211 | 0.0132 | -0.0212 | -0.0103 | -0.0362 | -0.011 | 0.0096 | -0.0405 | -0.0544 | -0.0318 | -0.0035 | -0.0664 | 0.0036 | -0.0636 |
| CN(CCO)CC[C@H](CSc1ccccc1)Nc1ccc(S(=O)(=O)NC(=O)c2ccc(N3CCC([C@@H](O)c4ccccc4-c4ccc(Cl)cc4)CC3)cc2)cc1S(=O)(=O)C(F)(F)F [AZD4320] + C[C@@H](Nc1cc(F)cc(F)c1)c1cc(C(=O)N(C)C)cc2c(=O)cc(N3CCOCC3)oc12 [AZD8186] (first compound max 1 µM, 7x7, partner max 3 µM) | 0.0383 | -0.0426 | 0.0231 | -0.0093 | 0.0591 | -0.0035 | -0.0302 | -0.0214 | -0.0216 | 0.0555 | 0.0261 | 0.0677 | 0.0753 | 0.0323 | 0.0715 | -0.0369 | 0.0409 | -0.0279 | 0.0128 | 0.0322 |
| COc1nnc2ccc(N3CCC(c4ccc(OCCN5CCN(C)C(=O)[C@H]5C)cc4)CC3)nn12 [AZD5153] + Cc1c2c(nn1C)CSCc1cc(n(C)n1)CSc1cc(c3ccccc3c1)OCCCc1c(C(=O)O)n(C)c3c-2c(Cl)ccc13 [AZD5991] (first compound max 1 µM, 7x7, partner max 1 µM) | 0.0362 | -0.0461 | -0.041 | -0.0503 | -0.0062 | -0.0271 | -0.0117 | -0.0304 | 0.0346 | 0.0407 | -0.0138 | -0.0202 | -0.007 | -0.0712 | 0.0279 | -0.0265 | -0.0268 | -0.0134 | -0.0164 | -0.0414 |
| Cc1c2c(nn1C)CSCc1cc(n(C)n1)CSc1cc(c3ccccc3c1)OCCCc1c(C(=O)O)n(C)c3c-2c(Cl)ccc13 [AZD5991] + CC1(C)CCC(CN2CCN(c3ccc(C(=O)NS(=O)(=O)c4ccc(NCC5CCOCC5)c([N+](=O)[O-])c4)c(Oc4cnc5[nH]ccc5c4)c3)CC2)=C(c2ccc(Cl)cc2)C1 [Venetoclax] (first compound max 1 µM, 7x7, partner max 1 µM) | 0.0195 | 0.0091 | 0.0031 | 0.0727 | -0.0218 | -0.0158 | 0.0428 | 0.0429 | 0.0139 | 0.0382 | -0.0053 | 0.0493 | 0.0519 | -0.0482 | 0.035 | -0.0471 | 0.0514 | -0.043 | 0.0312 | 0.0788 |
| CN(CCO)CC[C@H](CSc1ccccc1)Nc1ccc(S(=O)(=O)NC(=O)c2ccc(N3CCC([C@@H](O)c4ccccc4-c4ccc(Cl)cc4)CC3)cc2)cc1S(=O)(=O)C(F)(F)F [AZD4320] + C[C@@H]1COCCN1C2=NC(=NC(=C2)C3(CC3)[S@](=N)(=O)C)C4=C5C=CNC5=NC=C4 [AZD6738] (first compound max 1 µM, 7x7, partner max 10 µM) | -0.0285 | -0.0227 | -0.14 | -0.0184 | -0.0511 | -0.0099 | -0.0559 | 0.0273 | 0.0039 | -0.0403 | -0.0134 | -0.0014 | -0.007 | -0.0523 | 0.031 | -0.0246 | 0.0041 | -0.0711 | -0.0075 | -0.0207 |
| Cc1c2c(nn1C)CSCc1cc(n(C)n1)CSc1cc(c3ccccc3c1)OCCCc1c(C(=O)O)n(C)c3c-2c(Cl)ccc13 [AZD5991] + CN(C)CCCOc1ccc(-c2ccc3ncc4c(c3c2)n(C2CCOCC2)c(=O)n4C)cn1 [AZD0156] (first compound max 1 µM, 7x7, partner max 1 µM) | 0.0222 | 0.0049 | 0.0009 | -0.0128 | 0.0387 | -0.0204 | 0.0063 | 0.0058 | -0.028 | 0.0362 | -0.0241 | 0.0274 | 0.0235 | -0.0433 | -0.0536 | 0.0366 | -0.0028 | -0.0139 | -0.0017 | -0.122 |
| NC1(C(=O)N[C@@H](CCO)c2ccc(Cl)cc2)CCN(c2ncnc3[nH]ccc23)CC1 [Capivasertib] + Cn1cnc2c(F)c(Nc3ccc(Br)cc3Cl)c(C(=O)NOCCO)cc21 [Selumetinib] (first compound max 10 µM, 7x7, partner max 10 µM) | -0.0176 | 0.0543 | -0.0036 | -0.0353 | 0.0801 | -0.0191 | 0.0254 | 0.0055 | 0.0218 | -0.0138 | 0.0584 | 0.0898 | 0.0156 | 0.0807 | -0.037 | -0.092 | 0.0565 | -0.0333 | -0.0205 | -0.0141 |
| NC1(C(=O)N[C@@H](CCO)c2ccc(Cl)cc2)CCN(c2ncnc3[nH]ccc23)CC1 [Capivasertib] + COc1nnc2ccc(N3CCC(c4ccc(OCCN5CCN(C)C(=O)[C@H]5C)cc4)CC3)nn12 [AZD5153] (first compound max 10 µM, 7x7, partner max 1 µM) | -0.0281 | -0.0124 | -0.0365 | -0.0135 | 0.0351 | 0.0374 | 0.0675 | -0.0444 | 0.0058 | 0.045 | -0.0761 | -0.0042 | 0.108 | -0.0694 | -0.0484 | -0.0192 | -0.0242 | 0.0024 | -0.0148 | -0.047 |
| COc1cccc(OCCCN)c1-c1cc(Nc2cnc(C#N)cn2)n[nH]1 [Prexasertib] + CCc1c2c(nc3ccc(O)cc13)-c1cc3c(c(=O)n1C2)COC(=O)[C@]3(O)CC [SN-38] (first compound max 1 µM, 7x7, partner max 0.3 µM) | 0.0221 | -0.006 | -0.0103 | -0.0766 | 0.0007 | 0.132 | 0.0205 | 0.0005 | -0.0613 | -0.0078 | 0.108 | -0.0226 | 0.0377 | 0.0114 | -0.0152 | 0.103 | 0.0314 | -0.0404 | 0.0025 | -0.075 |
| NC1(C(=O)N[C@@H](CCO)c2ccc(Cl)cc2)CCN(c2ncnc3[nH]ccc23)CC1 [Capivasertib] + CCN(CCO)CCCOc1ccc2c(Nc3cc(CC(=O)Nc4cccc(F)c4)[nH]n3)ncnc2c1 [AZD2811] (first compound max 10 µM, 7x7, partner max 1 µM) | -0.0327 | 0.101 | -0.0382 | 0.059 | 0.0526 | 0.0001 | 0.0051 | -0.0813 | 0.0481 | 0.103 | -0.0558 | -0.0383 | -0.0235 | -0.0419 | -0.0421 | -0.079 | -0.0148 | -0.0523 | 0.0258 | -0.0307 |
